The text below walks through data of patent US20100137411A1, “RAS-MEDIATED EPIGENETIC SILENCING EFFECTORS AND USES THEREOF” (University of Massachusetts, priority 2007, published 2010).

Common to all, as to type: cell-based, mouse
For data set [1], the system named is Sfrp1, Par4/Pawr, Plagl1, H2-K1 and Lox. The experiment in a line: qRT-PCR expression of other epigenetically silenced genes in K-ras NIH 3T3 cells. Conditions: 10 μM 5-aza for 72 h. The protocol:
(§1) Cell culture. NIH 3T3 (ATCC# CRL-1658) and K:Molv NIH 3T3 (ATCC# CRL-6361; referred to here as K-ras NIH 3T3) cells were maintained in DMEM supplemented with 10% FCS at 37° C. and 5% CO2. For 5-aza-2′-deoxycytidine (5-aza) treatment, K-ras NIH 3T3 cells were treated with 10 μM 5-aza for 72 h.
(§2) Chromatin immunoprecipitation (ChIP) and methylated DNA immunoprecipitation (MeDIP). ChIP assays were performed using extracts prepared 7 days following retroviral transduction and puromycin selection. […] MeDIP and ChIP products were visualized by autoradiography, or analyzed by quantitative real-time PCR using Platinum SYBR Green qPCR SuperMix-UDG with Rox (Invitrogen). […] Quantitative real time RT-PCR. […] Reverse transcription was performed using SuperScript II Reverse Transcriptase (Invitrogen) as per the manufacturer's instructions, followed by quantitative real-time PCR as described above. […] Tumour dimensions were measured every 3 days from the time of appearance of the tumours, and tumour volume was calculated using the formula π/6×(length)×(width)^2. […]

A further data set deals with Fas. The experiment in a line: Immunoblot analysis of Fas re-expression in K-ras NIH 3T3 cells. As to conditions: 10 μM 5-aza for 72 h. The protocol: as §1
Immunoblot analysis. To prepare cell extracts, K-ras NIH 3T3 knockdown cell lines were harvested 7 days following retroviral transduction and puromycin selection (1.5 μg ml^−1) and lysed by boiling in 1× SDS sample buffer (Laemmli buffer) for 5 min. Proteins were resolved by 12% SDS-PAGE. Immunoblot analysis was performed using an anti-Fas (sc-716; Santa Cruz) or anti-p21 Ras (ab16795; Abcam) antibody to monitor expression of K-Ras (as a loading control), and an appropriate HRP-conjugated secondary antibody. Proteins were visualized using SuperSignal West Pico Luminol/Enhancer Solution (Pierce).

Data set [2] relates to Fas promoter. The experiment in a line: Methylated DNA immunoprecipitation (MeDIP) of the Fas promoter. Conditions: K-ras NIH 3T3 cells, 10 μM 5-aza for 72 h.
Description: To facilitate analysis of the methylation status of these three regions in the 28 K-ras NIH 3T3 KD cell lines we established and validated a rapid methylated DNA immunoprecipitation (MeDIP) assay, in which the antibody is directed against 5-methyl-cytosine (Weber, M. et al., Nat. Genet. 37, 853-862 (2005)). […] We then assessed the three hypermethylated Fas promoter regions in each of the 28 K-ras NIH 3T3 KD cell lines.
as §2

Data set [3] has as its system Fas promoter. As to the kind of experiment: Bisulphite sequencing of the Fas promoter. As to conditions: shRNA knockdown. On the procedure:
Bisulphite sequencing. Bisulphite modification was carried out essentially as described (Frommer, M. et al., Proc. Natl. Acad. Sci. USA 89, 1827-1831 (1992)) except that hydroquinone was used at a concentration of 125 mM during bisulphite treatment carried out in the dark and DNA was desalted on Qiaquick columns (Qiagen) after the bisulphite reaction. The regions analyzed were amplified by nested PCR. The first round comprised 24 cycles at 94° C. for 1 min, 48° C. for 1 min 30 s, and 72° C. for 1 min. One-tenth of the product was used as substrate for the second round of PCR comprising 28 cycles at 94° C. for 1 min, 48° C. for 1 min 30 s, 72° C. for 1 min.

`Nc1ncn([C@H]2C[C@H](O)[C@@H](CO)O2)c(=O)n1` [5-aza, 5-aza-2′-deoxycytidine]: the “expression of Sfrp1, Par4/Pawr, Plagl1, H2-K1 and Lox (all five genes)” value in data set [1] is on record as “re-expressed”. Further, in the data set on Fas, the Fas expression result is “restored Fas expression”. The “hypermethylation of Fas promoter TSS/DS region (MeDIP)” value in the data set with Fas promoter [2] is recorded as “not hypermethylated”.

B1: DNMT1: shRNA knocking down DNMT1; Open Biosystems V2MM_46797 or synthesized shRNA SEQ ID NO: 5 (nucleic acid)
chain: TGCTGTTGACAGTGAGCGCGCCCATCCTCAGGGACCATATTAGTGAAGCCACAGATGTAATATGGTCCCTGAGGATGGGCTTGCCTACTGCCTCGGA
For B1, the “hypermethylation of three Fas promoter regions (bisulphite sequencing)” value with Fas promoter [3] (H-ras transformed C3H10T1/2 cells) is reported as “not”. Moreover, the “hypermethylation of TSS/DS region of the Fas promoter (bisulphite sequence analysis)” value in the data set with Fas promoter [3] (K-ras NIH 3T3 cells) is listed as “no longer hypermethylated”.
